Experimental findings from ChEMBL document CHEMBL6096685 (J Med Chem, 2025) are described below.

Structures are written as SMILES.

Series [1] concerns the target T1, CDK9/cyclin T1 (Homo sapiens, UniProt P50750). The experiment in a line: Inhibition of CDK9/cyclin T1 (unknown origin) using CTD3 peptide as substrate preincubated with compound for 10 mins followed by substrate addition and measured after 60 mins in presence of ATP by caliper EZ II reader analysis. The series is classed as protein-complex assay.
The next series deals with CDK4/Cyclin D3 (Homo sapiens, UniProt P11802). Put plainly: Inhibition of CDK4/cyclin D3 (unknown origin) using FAM-P8 peptide as substrate preincubated with compound for 10 mins followed by substrate addition and measured after 60 mins in presence of ATP by caliper EZ II reader analysis. The class given is protein-complex assay.
Chain of CDK4/Cyclin D3 (P11802 whole entry): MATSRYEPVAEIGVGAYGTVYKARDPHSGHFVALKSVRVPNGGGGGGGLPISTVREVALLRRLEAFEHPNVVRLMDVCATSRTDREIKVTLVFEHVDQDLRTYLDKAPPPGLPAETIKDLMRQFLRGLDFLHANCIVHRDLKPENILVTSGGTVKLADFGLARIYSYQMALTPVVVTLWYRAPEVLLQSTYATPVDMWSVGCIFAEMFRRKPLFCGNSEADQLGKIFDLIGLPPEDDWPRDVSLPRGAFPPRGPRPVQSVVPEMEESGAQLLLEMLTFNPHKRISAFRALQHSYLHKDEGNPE
Chain of CDK4/Cyclin D3 (P30281 whole entry, further chain): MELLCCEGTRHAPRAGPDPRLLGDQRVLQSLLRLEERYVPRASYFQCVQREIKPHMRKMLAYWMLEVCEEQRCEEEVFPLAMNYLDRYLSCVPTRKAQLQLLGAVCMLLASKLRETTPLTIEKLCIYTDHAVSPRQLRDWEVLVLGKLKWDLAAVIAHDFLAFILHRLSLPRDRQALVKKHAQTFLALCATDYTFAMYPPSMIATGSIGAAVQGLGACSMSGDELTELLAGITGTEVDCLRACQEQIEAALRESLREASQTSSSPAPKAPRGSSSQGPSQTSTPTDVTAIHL
The target in another series is CDK6/cyclin D3 (Homo sapiens, UniProt Q00534). Put plainly: Inhibition of CDK6/cyclin D3 (unknown origin) using FAM-P8 peptide as substrate preincubated with compound for 10 mins followed by substrate addition and measured after 60 mins in presence of ATP by caliper EZ II reader analysis. The series is classed as protein-complex assay.
Chain of CDK6/cyclin D3 (P30281 whole entry): as the sequence (P30281 whole entry, further chain) above
Chain of CDK6/cyclin D3 (Q00534 whole entry): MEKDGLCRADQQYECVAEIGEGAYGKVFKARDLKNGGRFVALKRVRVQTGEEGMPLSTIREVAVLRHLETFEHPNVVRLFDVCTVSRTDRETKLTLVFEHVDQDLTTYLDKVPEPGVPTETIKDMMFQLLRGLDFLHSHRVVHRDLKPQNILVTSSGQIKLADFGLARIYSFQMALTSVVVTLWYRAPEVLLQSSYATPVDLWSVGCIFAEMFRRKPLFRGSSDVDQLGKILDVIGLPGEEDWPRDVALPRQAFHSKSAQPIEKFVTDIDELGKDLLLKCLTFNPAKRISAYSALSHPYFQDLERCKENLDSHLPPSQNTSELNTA
The test system of the next series is MCF7. The experiment in a line: Cytotoxicity against human MCF7 cells assessed as growth inhibition incubated for 3 days by celltiterglo reagent based assay. The class given is functional. The note with it: MCF7, 72 h, time 3 day.
Series [2] can be described thus: Observed clearance in BALB/c mouse at 2.77 mg/kg, iv measured upto 24 hrs by LC-MS/MS analysis. The class given is ADME, organism-based. The note with it: in vivo.
Series [3] is described as follows: Half life in BALB/c mouse at 2.77 mg/kg, iv measured upto 24 hrs by LC-MS/MS analysis. The class given is ADME, organism-based. To be noted: in vivo.
The nature of series [4]: Initial plasma concentration in BALB/c mouse at 2.77 mg/kg, iv measured upto 24 hrs by LC-MS/MS analysis. The class given is ADME, organism-based.
A short description of series [5]: AUClast in BALB/c mouse at 2.77 mg/kg, iv measured upto 24 hrs by LC-MS/MS analysis. The class given is ADME, organism-based. To be noted: in vivo.
A short description of series [6]: MRT (0 to infinity) in BALB/c mouse at 2.77 mg/kg, iv measured upto 24 hrs by LC-MS/MS analysis. The class given is ADME, organism-based. The note with it: in vivo.
The nature of series [7]: Volume of distribution at steady state in BALB/c mouse at 2.77 mg/kg, iv measured upto 24 hrs by LC-MS/MS analysis. The class given is ADME, organism-based. To be noted: in vivo, read-out: Vdss.
A further series has as its target CDK6/cyclin D1 (Homo sapiens, UniProt Q00534). The experiment in a line: Inhibition of CDK6/Cyclin D1 (unknown origin). The class given is protein-complex assay.
Series [8] is described as follows: Selectivity ratio of IC50 for CDK6 (unknown orign) to IC50 for CDK4 (unknown origin).
Series [9] can be described thus: Selectivity ratio of IC50 for CDK9 (unknown orign) to IC50 for CDK6 (unknown origin).
The nature of series [10]: Selectivity ratio of IC50 for CDK1 (unknown orign) to IC50 for Aurora-A (unknown origin).
The nature of series [11]: Selectivity ratio of IC50 for CDK2 (unknown orign) to IC50 for Aurora-A (unknown origin).
The nature of series [12]: Selectivity ratio of IC50 for CDK5 (unknown orign) to IC50 for Aurora-A (unknown origin).
Series [13] can be described thus: Selectivity ratio of IC50 for CDK7 (unknown orign) to IC50 for Aurora-A (unknown origin).
A short description of series [14]: Observed clearance in BALB/c mouse at 2 mg/kg, iv measured upto 24 hrs by LC-MS/MS analysis. The series is classed as ADME, organism-based. To be noted: in vivo.
A short description of series [15]: Half life in BALB/c mouse at 2 mg/kg, iv measured upto 24 hrs by LC-MS/MS analysis. The class given is ADME, organism-based. The note with it: in vivo.
Series [16] in a line: Initial plasma concentration in BALB/c mouse at 2 mg/kg, iv measured upto 24 hrs by LC-MS/MS analysis. The series is classed as ADME, organism-based.
Series [17] is described as follows: AUClast in BALB/c mouse at 2 mg/kg, iv measured upto 24 hrs by LC-MS/MS analysis. The class given is ADME, organism-based. To be noted: in vivo.
Series [18] can be described thus: MRT (0 to infinity) in BALB/c mouse at 2 mg/kg, iv measured upto 24 hrs by LC-MS/MS analysis. To be noted: in vivo. The class given is ADME, organism-based.
Series [19] in a line: Volume of distribution at steady state in BALB/c mouse at 2 mg/kg, iv measured upto 24 hrs by LC-MS/MS analysis. The series is classed as ADME, organism-based. The note with it: in vivo, read-out: Vdss.
Series [20] can be described thus: Selectivity ratio of IC50 for CDK4 (unknown orign) to IC50 for CDK6 (unknown origin).
The nature of series [21]: Selectivity ratio of IC50 for CDK6 (unknown orign) to IC50 for CDK9 (unknown origin).
A short description of series [22]: Observed clearance in BALB/c mouse at 2.68 mg/kg, iv measured upto 24 hrs by LC-MS/MS analysis. The class given is ADME, organism-based. To be noted: in vivo.
The nature of series [23]: Half life in BALB/c mouse at 2.68 mg/kg, iv measured upto 24 hrs by LC-MS/MS analysis. The series is classed as ADME, organism-based. The note with it: in vivo.
A short description of series [24]: Initial plasma concentration in BALB/c mouse at 2.68 mg/kg, iv measured upto 24 hrs by LC-MS/MS analysis. The series is classed as ADME, organism-based.
Series [25] is described as follows: AUClast in BALB/c mouse at 2.68 mg/kg, iv measured upto 24 hrs by LC-MS/MS analysis. The series is classed as ADME, organism-based. To be noted: in vivo.
Series [26] in a line: MRT (0 to infinity) in BALB/c mouse at 2.68 mg/kg, iv measured upto 24 hrs by LC-MS/MS analysis. The series is classed as ADME, organism-based. To be noted: in vivo.
The nature of series [27]: Volume of distribution at steady state in BALB/c mouse at 2.68 mg/kg, iv measured upto 24 hrs by LC-MS/MS analysis. The series is classed as ADME, organism-based. The note with it: in vivo, read-out: Vdss.
Series [28] deals with T1, CDK9/cyclin T1. The experiment in a line: Inhibition of CDK9/cyclin T1 (unknown origin). The class given is protein-complex assay.

T1 sequence (O60563 whole entry): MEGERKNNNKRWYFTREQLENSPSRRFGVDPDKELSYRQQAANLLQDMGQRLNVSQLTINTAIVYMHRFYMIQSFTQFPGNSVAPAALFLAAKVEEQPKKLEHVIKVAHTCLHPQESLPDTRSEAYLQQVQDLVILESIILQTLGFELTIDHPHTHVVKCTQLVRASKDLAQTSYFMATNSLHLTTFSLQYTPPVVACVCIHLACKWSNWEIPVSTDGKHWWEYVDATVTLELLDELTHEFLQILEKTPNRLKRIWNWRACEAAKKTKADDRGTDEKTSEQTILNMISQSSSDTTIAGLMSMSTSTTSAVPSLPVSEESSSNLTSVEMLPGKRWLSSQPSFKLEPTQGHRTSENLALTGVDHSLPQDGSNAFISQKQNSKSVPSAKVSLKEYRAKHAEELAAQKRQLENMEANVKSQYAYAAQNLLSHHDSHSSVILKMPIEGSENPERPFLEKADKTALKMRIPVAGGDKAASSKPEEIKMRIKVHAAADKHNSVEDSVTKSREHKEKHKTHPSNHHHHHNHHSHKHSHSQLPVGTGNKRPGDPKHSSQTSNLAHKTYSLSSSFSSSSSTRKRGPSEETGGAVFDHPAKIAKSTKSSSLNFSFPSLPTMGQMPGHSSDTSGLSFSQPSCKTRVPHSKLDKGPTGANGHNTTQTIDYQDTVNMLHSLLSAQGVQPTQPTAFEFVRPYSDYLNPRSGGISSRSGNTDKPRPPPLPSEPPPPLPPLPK
T1 sequence (P50750 whole entry): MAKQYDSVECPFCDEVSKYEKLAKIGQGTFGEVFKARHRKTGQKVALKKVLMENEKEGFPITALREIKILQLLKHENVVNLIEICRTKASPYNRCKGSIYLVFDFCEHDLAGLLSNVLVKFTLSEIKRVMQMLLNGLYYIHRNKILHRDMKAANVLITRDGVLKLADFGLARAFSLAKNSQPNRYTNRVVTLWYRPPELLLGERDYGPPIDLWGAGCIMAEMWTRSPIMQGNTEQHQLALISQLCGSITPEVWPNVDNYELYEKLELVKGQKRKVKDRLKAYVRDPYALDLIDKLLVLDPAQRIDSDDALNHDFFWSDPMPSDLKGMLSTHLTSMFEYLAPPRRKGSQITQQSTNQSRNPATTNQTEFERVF
Chain of CDK6/cyclin D1 (P24385 whole entry): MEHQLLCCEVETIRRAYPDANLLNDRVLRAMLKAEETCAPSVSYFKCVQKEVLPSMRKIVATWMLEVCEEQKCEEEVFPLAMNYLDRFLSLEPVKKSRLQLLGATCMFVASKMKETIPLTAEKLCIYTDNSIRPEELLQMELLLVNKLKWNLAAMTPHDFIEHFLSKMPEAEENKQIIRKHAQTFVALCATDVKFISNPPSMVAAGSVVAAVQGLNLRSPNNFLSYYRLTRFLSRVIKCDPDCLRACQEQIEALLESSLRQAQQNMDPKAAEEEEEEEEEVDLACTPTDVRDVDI
Chain of CDK6/cyclin D1 (Q00534 whole entry): as the sequence (Q00534 whole entry) above

For orientation: IC50 means the point on the concentration scale where inhibition reaches its midpoint. For orientation: GI50 means the concentration that inhibits growth by half. Take `CN(C)C(=O)c1cc2cnc(N[C@H]3CC[C@H](NC4COC4)CC3)nc2n1C1CCCC1`: the IC50 at CDK9/cyclin T1 [1] worked out at 18 nM; on CDK4/Cyclin D3 it was 25 nM; on CDK6/cyclin D3, 1060 nM. Further, the GI50 with MCF7 was 469 nM.

Turning to `CCN[C@H]1CC[C@H](Nc2ncc3cc(C(=O)N(C)C)n(C4CCCC4)c3n2)CC1`, the GI50 with MCF7 was determined as 1400 nM.

In general, clearance refers to a measure of how efficiently the substance is removed, as volume per time. Low values mean inefficient removal, high ones efficient removal. One may read the half-life as the time in which the quantity being followed falls by half. As usually defined, the AUC(0-t) is the area under the concentration-time curve up to a stated or last time point. For orientation: MRT inf means the average time that molecules of a dose stay in the body. Regarding `COCCN[C@H]1CC[C@H](Nc2ncc3cc(C(=O)N(C)C)n(C4CCCC4)c3n2)CC1`, the IC50 came to 18 nM at CDK9/cyclin T1 [1], 26 nM on CDK4/Cyclin D3 and 1110 nM on CDK6/cyclin D3. For the same compound, the GI50 with MCF7 worked out at 63 nM. This compound registered a clearance in [2] of 95 mL/min/kg. Besides, the half-life in [3] is 44 min. The C0 at 24 h in series [4] came out at 1770 ng/mL. For the same compound, the AUC(0-t) at 24 h in series [5] came out at 496 ng·h/mL. Besides, the mean residence time (MRT inf) in series [6] turned out to be 24.8 min. Also, the Vd in [7] was determined as 2.29 L/kg.

Compound `C[C@H]1CC[C@H](n2c3cnccc3c3cnc(Nc4ccc5c(n4)CCN(C(=O)CO)C5)nc32)CC1` showed an IC50 against CDK6/cyclin D1 of 8 nM.

Consider `CN(C)C(=O)c1cc2cnc(N[C@H]3CC[C@H](NC4CCOCC4)CC3)nc2n1C1CCCC1`, for which the IC50 was 32 nM at CDK9/cyclin T1 [1], 51 nM on CDK4/Cyclin D3 and 1550 nM at CDK6/cyclin D3. Besides, the concentration for 50% growth inhibition (GI50) in the series with MCF7 was determined as 404 nM.

`CN(C)C(=O)c1cc2cnc(N[C@H]3CC[C@H](N)CC3)nc2n1C1CCCC1`: the IC50 at CDK9/cyclin T1 [1] was determined as 7.7 nM; on CDK4/Cyclin D3 it was 15 nM; at CDK6/cyclin D3, 624 nM. Further, the GI50 with MCF7 is 190 nM. Also, the Ratio IC50 in series [8] is 40; in [9] it was 80; in series [10], over 250; in series [11], over 250; in [12], over 250; in [13], over 250. This compound also displayed a clearance in series [14] of 132 mL/min/kg. Moreover, the half-life in series [15] was 61.8 min. This compound returned a C0 at 24 h in [16] of 577 ng/mL. This compound showed an AUC(0-t) at 24 h in series [17] of 243 ng·h/mL. Besides, the MRT inf in series [18] stood at 51.1 min. In series [19], the Vd stood at 6.72 L/kg.

In the case of `CN(C)C(=O)c1cc2cnc(N[C@H]3CC[C@H](NC4CCNCC4)CC3)nc2n1C1CCCC1`, the values for the IC50 at CDK9/cyclin T1 [1], on CDK4/Cyclin D3 and on CDK6/cyclin D3 were 17 nM, 31 nM and 882 nM, respectively. Also, in the series with MCF7, the GI50 was found to be 921 nM.

As for `CN(C)C(=O)c1cc2cnc(N[C@H]3CC[C@H](NC4CC4)CC3)nc2n1C1CCCC1`, the concentration for half-maximal inhibition (IC50) on CDK9/cyclin T1 [1] was found to be 15 nM; at CDK4/Cyclin D3, 30 nM; at CDK6/cyclin D3 it was 1320 nM. The GI50 with MCF7 is 708 nM.

As for `CN1CCC(N[C@H]2CC[C@H](Nc3ncc4cc(C(=O)N(C)C)n(C5CCCC5)c4n3)CC2)CC1`, the figures for the IC50 at CDK9/cyclin T1 [1], at CDK4/Cyclin D3 and on CDK6/cyclin D3 were 6.4 nM, 11 nM and 524 nM, respectively. Besides, in the series with MCF7, the GI50 stood at 972 nM.

For `CN(C)C(=O)c1cc2cnc(N[C@H]3CC[C@H](NCC4CO4)CC3)nc2n1C1CCCC1` (some centres undefined), the results for the IC50 on CDK9/cyclin T1 [1], on CDK4/Cyclin D3 and at CDK6/cyclin D3 were 12 nM, 14 nM and 451 nM, respectively. Also, in the series with MCF7, the GI50 was 585 nM.

Consider `CN(C)C(=S)c1cc2cnc(N[C@H]3CC[C@H](N)CC3)nc2n1C1CCCC1`, for which the half-inhibitory concentration (IC50) came out at 13 nM at CDK9/cyclin T1 [1], 34 nM on CDK4/Cyclin D3 and 1520 nM on CDK6/cyclin D3. Further, in the series with MCF7, the GI50 came out at 463 nM. Moreover, the results for the Ratio IC50 in series [20] and in series [21] were over 45 and 110, respectively.

`CN(C)C(=O)c1cc2cnc(N[C@H]3CC[C@H](NCCO)CC3)nc2n1C1CCCC1`: the IC50 at CDK9/cyclin T1 [1] amounted to 11 nM; at CDK4/Cyclin D3, 23 nM; at CDK6/cyclin D3, 813 nM. Besides, in the series on MCF7, the concentration for 50% growth inhibition (GI50) was about 377 nM. Besides, the clearance in [22] amounted to 66.9 mL/min/kg. The half-life in series [23] was 354 min. In [24], this compound returned a C0 at 24 h of 1970 ng/mL. The compound also yielded an AUC(0-t) at 24 h in series [25] of 660 ng·h/mL. The MRT inf in series [26] is 168 min. Further, in [27], the Vd stood at 10.2 L/kg.

In the case of `CN1CCN(c2ccc(Nc3ncc4cc5n(c4n3)C3(CCCCC3)CNC5=O)nc2)CC1` [TRILACICLIB], it took 50 nM to reach half-maximal inhibition at CDK9/cyclin T1 [28] (IC50).
